ChEMBL document CHEMBL4507290 (2021)

Tests used:
[1] = molecular target: Ankyrin repeat and protein kinase domain-containing protein 1 (Homo sapiens) (UniProt Q8NFD2); details: Compound concentration 1000.0 nM
[2] = molecular target: Mitogen-activated protein kinase kinase kinase 5 (Homo sapiens) (UniProt Q99683); details: Compound concentration 1000.0 nM
[3] = molecular target: Calcium/calmodulin-dependent protein kinase type 1B (Homo sapiens) (UniProt Q6P2M8); details: Compound concentration 1000.0 nM
[4] = molecular target: Calcium/calmodulin-dependent protein kinase type IV (Homo sapiens) (UniProt Q16566); details: Compound concentration 1000.0 nM
[5] = molecular target: Cyclin-dependent kinase 8 (Homo sapiens) (UniProt P49336); details: Compound concentration 1000.0 nM
[6] = molecular target: Dual specificity protein kinase CLK2 (Homo sapiens) (UniProt P49760); details: Compound concentration 1000.0 nM
[7] = molecular target: Macrophage colony-stimulating factor 1 receptor (Homo sapiens) (UniProt P07333); details: Compound concentration 1000.0 nM
[8] = molecular target: Serine/threonine-protein kinase MRCK gamma (Homo sapiens) (UniProt Q6DT37); details: Compound concentration 1000.0 nM
[9] = system: Epidermal growth factor receptor (Homo sapiens), P00533 [UNDEFINED MUTATION]; details: Compound concentration 1000.0 nM
[10] = molecular target: Eukaryotic translation initiation factor 2-alpha kinase 1 (Homo sapiens) (UniProt Q9BQI3); details: Compound concentration 1000.0 nM
[11] = molecular target: Mitogen-activated protein kinase 1 (Homo sapiens) (UniProt P28482); details: Compound concentration 1000.0 nM
[12] = molecular target: Focal adhesion kinase 1 (Homo sapiens) (UniProt Q05397); details: Compound concentration 1000.0 nM
[13] = molecular target: Homeodomain-interacting protein kinase 2 (Homo sapiens) (UniProt Q9H2X6); details: Compound concentration 1000.0 nM
[14] = molecular target: Mitogen-activated protein kinase 10 (Homo sapiens) (UniProt P53779); details: Compound concentration 1000.0 nM
[15] = molecular target: Serine/threonine-protein kinase LATS1 (Homo sapiens) (UniProt O95835); details: Compound concentration 1000.0 nM
[16] = molecular target: Mitogen-activated protein kinase kinase kinase 2 (Homo sapiens) (UniProt Q9Y2U5); details: Compound concentration 1000.0 nM
[17] = molecular target: Mitogen-activated protein kinase kinase kinase kinase 2 (Homo sapiens) (UniProt Q12851); details: Compound concentration 1000.0 nM
[18] = molecular target: MAP kinase-interacting serine/threonine-protein kinase 2 (Homo sapiens) (UniProt Q9HBH9); details: Compound concentration 1000.0 nM
[19] = molecular target: Macrophage-stimulating protein receptor (Homo sapiens) (UniProt Q04912); details: Compound concentration 1000.0 nM
[20] = molecular target: Mitogen-activated protein kinase 12 (Homo sapiens) (UniProt P53778); details: Compound concentration 1000.0 nM
[21] = molecular target: Serine/threonine-protein kinase PAK 1 (Homo sapiens) (UniProt Q13153); details: Compound concentration 1000.0 nM
[22] = molecular target: Serine/threonine-protein kinase PAK 5 (Homo sapiens) (UniProt Q9P286); details: Compound concentration 1000.0 nM
[23] = molecular target: Calcium-dependent protein kinase 1 (Plasmodium falciparum) (UniProt P62344); details: Compound concentration 1000.0 nM
[24] = molecular target: Cyclin-dependent kinase 2 homolog (Plasmodium falciparum (isolate 3D7)) (UniProt P61075); details: Compound concentration 1000.0 nM
[25] = system: Phosphatidylinositol 4,5-bisphosphate 3-kinase catalytic subunit alpha isoform (Homo sapiens), P42336 [I800L]; details: Compound concentration 1000.0 nM
[26] = molecular target: Phosphatidylinositol 4,5-bisphosphate 3-kinase catalytic subunit beta isoform (Homo sapiens) (UniProt P42338); details: Compound concentration 1000.0 nM
[27] = molecular target: Phosphatidylinositol 4,5-bisphosphate 3-kinase catalytic subunit gamma isoform (Homo sapiens) (UniProt P48736); details: Compound concentration 1000.0 nM
[28] = molecular target: Protein kinase C iota type (Homo sapiens) (UniProt P41743); details: Compound concentration 1000.0 nM
[29] = molecular target: cGMP-dependent protein kinase 1 (Homo sapiens) (UniProt Q13976); details: Compound concentration 1000.0 nM
[30] = system: Proto-oncogene tyrosine-protein kinase receptor Ret (Homo sapiens), P07949 [V804L]; details: Compound concentration 1000.0 nM
[31] = molecular target: Serine/threonine-protein kinase SIK1 (Homo sapiens) (UniProt P57059); details: Compound concentration 1000.0 nM
[32] = molecular target: NUAK family SNF1-like kinase 2 (Homo sapiens) (UniProt Q9H093); details: Compound concentration 1000.0 nM
[33] = molecular target: Mitogen-activated protein kinase kinase kinase 7 (Homo sapiens) (UniProt O43318); details: Compound concentration 1000.0 nM
[34] = molecular target: Serine/threonine-protein kinase TBK1 (Homo sapiens) (UniProt Q9UHD2); details: Compound concentration 1000.0 nM
[35] = molecular target: Dual specificity testis-specific protein kinase 1 (Homo sapiens) (UniProt Q15569); details: Compound concentration 1000.0 nM
[36] = molecular target: Serine/threonine-protein kinase tousled-like 2 (Homo sapiens) (UniProt Q86UE8); details: Compound concentration 1000.0 nM
[37] = molecular target: Serine/threonine-protein kinase ULK2 (Homo sapiens) (UniProt Q8IYT8); details: Compound concentration 1000.0 nM
[38] = molecular target: Serine/threonine-protein kinase ULK3 (Homo sapiens) (UniProt Q6PHR2); details: Compound concentration 1000.0 nM
[39] = molecular target: Wee1-like protein kinase (Homo sapiens) (UniProt P30291); details: Compound concentration 1000.0 nM
[40] = molecular target: Serine/threonine-protein kinase 32A (Homo sapiens) (UniProt Q8WU08); details: Compound concentration 1000.0 nM
[41] = molecular target: Serine/threonine-protein kinase 25 (Homo sapiens) (UniProt O00506); details: Compound concentration 1000.0 nM
[42] = molecular target: 5-hydroxytryptamine receptor 1B (Homo sapiens) (UniProt P28222); details: Compound concentration 10.0 uM
[43] = molecular target: D(1A) dopamine receptor (Homo sapiens) (UniProt P21728); details: Compound concentration 10.0 uM
[44] = molecular target: Muscarinic acetylcholine receptor M2 (Homo sapiens) (UniProt P08172); details: Compound concentration 10.0 uM

Sequence of Calcium/calmodulin-dependent protein kinase type IV (Homo sapiens) (Q16566 whole entry): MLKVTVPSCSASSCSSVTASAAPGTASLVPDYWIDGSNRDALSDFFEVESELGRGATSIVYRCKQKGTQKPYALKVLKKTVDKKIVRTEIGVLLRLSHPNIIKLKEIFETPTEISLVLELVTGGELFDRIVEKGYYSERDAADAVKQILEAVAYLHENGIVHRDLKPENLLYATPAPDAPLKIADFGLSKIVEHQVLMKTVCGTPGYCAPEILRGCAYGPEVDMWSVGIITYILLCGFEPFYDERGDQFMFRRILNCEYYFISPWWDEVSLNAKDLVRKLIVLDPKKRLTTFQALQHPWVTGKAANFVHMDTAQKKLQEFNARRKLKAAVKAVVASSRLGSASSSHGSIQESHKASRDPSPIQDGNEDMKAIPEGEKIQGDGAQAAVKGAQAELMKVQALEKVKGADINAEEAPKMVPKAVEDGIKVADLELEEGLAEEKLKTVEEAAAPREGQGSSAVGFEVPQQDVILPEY
Sequence of Focal adhesion kinase 1 (Homo sapiens) (Q05397 2-1052 limits assumed): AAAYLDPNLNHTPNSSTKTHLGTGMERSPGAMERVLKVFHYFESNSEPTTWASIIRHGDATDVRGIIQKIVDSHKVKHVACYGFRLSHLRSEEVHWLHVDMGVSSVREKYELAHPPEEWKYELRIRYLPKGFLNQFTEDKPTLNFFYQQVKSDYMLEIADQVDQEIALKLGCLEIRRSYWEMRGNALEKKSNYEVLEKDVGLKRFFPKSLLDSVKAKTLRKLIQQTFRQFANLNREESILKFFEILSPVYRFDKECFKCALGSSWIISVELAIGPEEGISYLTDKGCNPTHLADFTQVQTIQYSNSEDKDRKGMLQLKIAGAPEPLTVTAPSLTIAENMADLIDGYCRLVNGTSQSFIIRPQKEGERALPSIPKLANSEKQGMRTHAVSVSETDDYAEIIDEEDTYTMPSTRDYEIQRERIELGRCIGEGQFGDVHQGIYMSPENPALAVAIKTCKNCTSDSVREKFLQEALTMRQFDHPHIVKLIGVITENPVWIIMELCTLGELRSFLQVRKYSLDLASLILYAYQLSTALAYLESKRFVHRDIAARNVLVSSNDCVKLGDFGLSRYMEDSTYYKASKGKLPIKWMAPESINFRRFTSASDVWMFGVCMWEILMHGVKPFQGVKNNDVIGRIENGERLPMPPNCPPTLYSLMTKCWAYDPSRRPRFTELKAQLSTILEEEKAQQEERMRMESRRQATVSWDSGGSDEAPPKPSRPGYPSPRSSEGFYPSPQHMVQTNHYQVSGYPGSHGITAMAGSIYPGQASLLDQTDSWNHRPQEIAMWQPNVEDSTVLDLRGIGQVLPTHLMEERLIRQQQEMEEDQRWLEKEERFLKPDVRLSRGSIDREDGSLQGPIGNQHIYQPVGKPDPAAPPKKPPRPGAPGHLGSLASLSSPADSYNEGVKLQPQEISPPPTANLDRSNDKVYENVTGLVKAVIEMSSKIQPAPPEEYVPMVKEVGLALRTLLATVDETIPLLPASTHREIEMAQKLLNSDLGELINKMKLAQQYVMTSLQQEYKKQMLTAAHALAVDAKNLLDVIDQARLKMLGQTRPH
Sequence of Serine/threonine-protein kinase ULK3 (Homo sapiens) (Q6PHR2 whole entry): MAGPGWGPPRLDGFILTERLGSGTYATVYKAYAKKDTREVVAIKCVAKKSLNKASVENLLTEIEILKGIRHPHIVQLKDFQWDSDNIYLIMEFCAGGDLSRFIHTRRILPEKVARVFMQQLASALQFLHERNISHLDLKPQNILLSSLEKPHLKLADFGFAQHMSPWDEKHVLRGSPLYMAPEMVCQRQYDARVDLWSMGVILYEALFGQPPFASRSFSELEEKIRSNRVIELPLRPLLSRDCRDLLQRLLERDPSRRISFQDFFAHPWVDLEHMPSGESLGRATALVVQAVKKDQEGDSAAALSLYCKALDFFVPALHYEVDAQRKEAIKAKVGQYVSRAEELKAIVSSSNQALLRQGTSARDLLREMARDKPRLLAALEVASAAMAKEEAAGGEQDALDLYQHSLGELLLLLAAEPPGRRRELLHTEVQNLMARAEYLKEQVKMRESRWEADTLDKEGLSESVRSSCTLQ
Sequence of Mitogen-activated protein kinase kinase kinase 2 (Homo sapiens) (Q9Y2U5 whole entry): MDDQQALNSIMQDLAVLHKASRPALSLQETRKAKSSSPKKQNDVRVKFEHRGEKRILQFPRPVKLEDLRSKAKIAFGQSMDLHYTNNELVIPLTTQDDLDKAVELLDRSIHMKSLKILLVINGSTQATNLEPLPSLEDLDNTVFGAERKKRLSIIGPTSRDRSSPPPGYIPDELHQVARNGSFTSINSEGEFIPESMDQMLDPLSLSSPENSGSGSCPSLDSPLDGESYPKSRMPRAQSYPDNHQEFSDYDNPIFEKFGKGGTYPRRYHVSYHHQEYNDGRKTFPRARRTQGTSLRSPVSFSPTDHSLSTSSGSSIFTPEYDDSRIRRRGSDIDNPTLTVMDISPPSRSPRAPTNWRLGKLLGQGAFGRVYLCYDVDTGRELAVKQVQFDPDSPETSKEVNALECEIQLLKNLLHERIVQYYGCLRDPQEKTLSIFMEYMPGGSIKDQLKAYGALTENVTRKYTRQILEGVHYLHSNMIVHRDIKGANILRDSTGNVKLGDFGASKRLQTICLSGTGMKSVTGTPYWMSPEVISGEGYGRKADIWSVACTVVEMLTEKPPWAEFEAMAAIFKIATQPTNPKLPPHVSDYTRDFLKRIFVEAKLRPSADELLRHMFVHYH
Sequence of Serine/threonine-protein kinase PAK 5 (Homo sapiens) (Q9P286 whole entry, looked up): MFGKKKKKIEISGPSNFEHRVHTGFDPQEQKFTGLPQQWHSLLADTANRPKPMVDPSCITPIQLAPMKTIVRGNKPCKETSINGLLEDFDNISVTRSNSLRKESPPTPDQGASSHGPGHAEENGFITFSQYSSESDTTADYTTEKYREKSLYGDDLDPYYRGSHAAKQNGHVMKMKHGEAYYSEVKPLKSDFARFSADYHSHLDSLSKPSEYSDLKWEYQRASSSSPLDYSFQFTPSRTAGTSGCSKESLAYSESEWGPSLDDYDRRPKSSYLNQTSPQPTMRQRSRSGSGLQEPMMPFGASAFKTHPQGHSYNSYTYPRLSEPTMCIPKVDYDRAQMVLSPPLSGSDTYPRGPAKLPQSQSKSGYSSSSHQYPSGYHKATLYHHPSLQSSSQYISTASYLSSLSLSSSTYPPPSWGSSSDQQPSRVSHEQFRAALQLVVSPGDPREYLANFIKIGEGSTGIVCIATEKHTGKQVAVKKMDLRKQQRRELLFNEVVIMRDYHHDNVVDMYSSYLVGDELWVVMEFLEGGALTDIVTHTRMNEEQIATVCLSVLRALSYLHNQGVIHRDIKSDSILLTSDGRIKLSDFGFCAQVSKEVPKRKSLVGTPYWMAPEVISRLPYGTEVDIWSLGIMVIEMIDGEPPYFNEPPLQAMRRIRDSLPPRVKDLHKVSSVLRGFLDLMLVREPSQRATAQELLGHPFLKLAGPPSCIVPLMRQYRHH
Sequence of Serine/threonine-protein kinase TBK1 (Homo sapiens) (Q9UHD2 whole entry): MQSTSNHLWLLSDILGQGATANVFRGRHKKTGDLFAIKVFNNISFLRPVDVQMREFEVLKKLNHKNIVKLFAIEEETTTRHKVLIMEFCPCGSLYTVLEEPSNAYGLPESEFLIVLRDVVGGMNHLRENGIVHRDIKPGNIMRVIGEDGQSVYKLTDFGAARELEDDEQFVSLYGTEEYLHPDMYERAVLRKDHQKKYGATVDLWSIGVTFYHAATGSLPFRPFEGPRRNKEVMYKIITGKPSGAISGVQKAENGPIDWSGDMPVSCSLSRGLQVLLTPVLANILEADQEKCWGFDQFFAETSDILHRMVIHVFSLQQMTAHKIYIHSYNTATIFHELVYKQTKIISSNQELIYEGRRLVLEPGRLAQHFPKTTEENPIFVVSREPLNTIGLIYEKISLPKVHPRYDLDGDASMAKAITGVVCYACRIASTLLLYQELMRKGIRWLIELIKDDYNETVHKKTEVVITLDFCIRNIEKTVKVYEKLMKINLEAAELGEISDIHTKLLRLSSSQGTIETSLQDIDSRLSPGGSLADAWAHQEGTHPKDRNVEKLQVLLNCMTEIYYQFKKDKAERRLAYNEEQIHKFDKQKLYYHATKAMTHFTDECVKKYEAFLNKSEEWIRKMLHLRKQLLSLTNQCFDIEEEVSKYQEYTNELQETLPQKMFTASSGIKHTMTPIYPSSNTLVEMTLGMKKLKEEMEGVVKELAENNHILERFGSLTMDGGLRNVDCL
Sequence of Protein kinase C iota type (Homo sapiens) (P41743 whole entry): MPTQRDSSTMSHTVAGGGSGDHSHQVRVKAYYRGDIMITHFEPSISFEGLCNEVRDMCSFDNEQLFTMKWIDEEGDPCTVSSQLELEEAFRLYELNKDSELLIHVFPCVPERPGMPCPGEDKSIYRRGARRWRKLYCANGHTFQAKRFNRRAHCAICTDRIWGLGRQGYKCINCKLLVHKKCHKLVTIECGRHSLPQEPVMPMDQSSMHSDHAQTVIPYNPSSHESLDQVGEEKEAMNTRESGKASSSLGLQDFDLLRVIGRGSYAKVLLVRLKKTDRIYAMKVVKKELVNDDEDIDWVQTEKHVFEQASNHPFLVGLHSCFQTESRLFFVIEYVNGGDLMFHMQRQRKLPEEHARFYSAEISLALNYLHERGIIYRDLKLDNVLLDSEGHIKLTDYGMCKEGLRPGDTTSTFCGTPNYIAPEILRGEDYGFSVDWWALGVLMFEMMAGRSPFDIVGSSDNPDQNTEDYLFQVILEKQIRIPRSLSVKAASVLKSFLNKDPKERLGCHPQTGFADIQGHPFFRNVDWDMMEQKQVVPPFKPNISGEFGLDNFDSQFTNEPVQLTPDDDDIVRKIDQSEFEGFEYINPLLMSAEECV
Sequence of Mitogen-activated protein kinase 1 (Homo sapiens) (P28482 whole entry): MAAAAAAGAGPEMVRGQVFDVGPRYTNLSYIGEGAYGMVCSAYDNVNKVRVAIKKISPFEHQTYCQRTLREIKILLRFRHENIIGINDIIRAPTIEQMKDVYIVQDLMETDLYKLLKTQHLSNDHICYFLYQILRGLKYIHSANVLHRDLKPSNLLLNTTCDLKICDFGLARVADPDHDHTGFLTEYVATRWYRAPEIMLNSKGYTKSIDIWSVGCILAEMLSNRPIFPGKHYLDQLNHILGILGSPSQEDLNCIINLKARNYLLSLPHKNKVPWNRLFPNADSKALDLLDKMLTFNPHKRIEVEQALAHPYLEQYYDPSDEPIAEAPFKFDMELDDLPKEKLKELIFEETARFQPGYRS

CN([C@@H]1CCc2c(CC(=O)O)c3cc(S(C)(=O)=O)ccc3n2C1)S(=O)(=O)c1ccc(F)cc1
inactive: residual activity [1] 96% | residual activity [2] 90% | residual activity [3] 90% | residual activity [4] 87% | residual activity [5] 100% | residual activity [6] 100% | residual activity [7] 93% | residual activity [8] 93% | residual activity [9] 100% | residual activity [10] 90% | residual activity [11] 77% | residual activity [12] 99% | residual activity [13] 100% | residual activity [14] 100% | residual activity [15] 61% | residual activity [16] 89% | residual activity [17] 90% | residual activity [18] 100% | residual activity [19] 94% | residual activity [20] 100% | residual activity [21] 95% | residual activity [22] 100% | residual activity [23] 75% | residual activity [24] 100% | residual activity [25] 72% | residual activity [26] 100% | residual activity [27] 100% | residual activity [28] 100% | residual activity [29] 95% | residual activity [30] 100% | residual activity [31] 87% | residual activity [32] 87% | residual activity [33] 100% | residual activity [34] 97% | residual activity [35] 73% | residual activity [36] 100% | residual activity [37] 100% | residual activity [38] 79% | residual activity [39] 100% | residual activity [40] 100% | residual activity [41] 100% | inhibition [42] 2.6% | inhibition [43] -2.96% | inhibition [44] -9.24%

CN([C@@H]1CCc2c(CC(=O)O)c3ccccc3n2C1)S(=O)(=O)c1ccc(F)cc1 [MK-7246]
inactive: residual activity [1] 100% | residual activity [2] 100% | residual activity [3] 87% | residual activity [4] 85% | residual activity [5] 100% | residual activity [6] 94% | residual activity [7] 100% | residual activity [8] 100% | residual activity [9] 100% | residual activity [10] 98% | residual activity [11] 97% | residual activity [12] 100% | residual activity [13] 100% | residual activity [14] 100% | residual activity [15] 69% | residual activity [16] 100% | residual activity [17] 87% | residual activity [18] 100% | residual activity [19] 93% | residual activity [20] 94% | residual activity [21] 96% | residual activity [22] 100% | residual activity [23] 90% | residual activity [24] 94% | residual activity [25] 79% | residual activity [26] 88% | residual activity [27] 100% | residual activity [28] 100% | residual activity [29] 100% | residual activity [30] 99% | residual activity [31] 71% | residual activity [32] 100% | residual activity [33] 100% | residual activity [34] 100% | residual activity [35] 91% | residual activity [36] 100% | residual activity [37] 100% | residual activity [38] 80% | residual activity [39] 100% | residual activity [40] 100% | residual activity [41] 99% | inhibition [42] 35.6% | inhibition [43] 12.3% | inhibition [44] -0.4%
